Among the data in the RepoRT retention time repository are LC retention time values, retold here.

The series is described as follows: Waters ACQUITY UPLC BEH C18, 100 × 2.1 mm, 1.7 µm, 40 °C, 0.3 to 0.4 mL/min, estimated dead time 0.63 min; A: water + 0.1% formic acid; B: methanol + 0.1% formic acid; gradient (min/%B) 0/0.5 0.1/0.5 10/80 10.1/99.5 12/99.5. The settings on record: stereoisomer not certain.
In the case of `CC1CNC2C(C)C3C(CC4C5CCC6CC(OC7OC(CO)C(OC8OC(CO)C(O)C(OC9OCC(O)C(O)C9O)C8OC8OC(CO)C(O)C(O)C8O)C(O)C7O)CCC6(C)C5CCC43C)OC2(O)C1` (configuration not stated), the LC retention time is 4.02 min. The value for `CCC(C)C(N)C(=O)NC(CCC(N)=O)C(=O)O` (configuration not stated) was 1.82 min; that for `CCC(C)C(N)C(=O)NC(CO)C(=O)O` (configuration not stated) was 1.8 min; that for `O=C(O)CC(=O)OCC1OC(Oc2c(-c3ccc(O)c(O)c3)oc3cc(OC4OC(CO)C(O)C(O)C4O)cc(O)c3c2=O)C(O)C(O)C1O` (configuration not stated) was 3.11 min. The value for `O=C(O)c1cc(=O)c2ccccc2[nH]1` was 3.11 min; that for `COc1cc(C=CC(=O)NCCc2ccc(O)cc2)ccc1O` was 5.13 min; that for `CC(C)=CCCC(C)(O)C1CCC2(C)C1C(O)CC1C3(C)CCC(O)C(C)(C)C3C(OC3OC(CO)C(O)C(O)C3OC3OC(CO)C(O)C(O)C3O)CC12C` (configuration not stated) was 5.94 min. The same measure for `CC1(C)CC(O)C2(C)CCC3(C)C(=CCC4C5(C)CCC(OC6OC(C(=O)O)C(O)C(O)C6OC6OC(CO)C(O)C(O)C6OC6OC(CO)C(O)C(O)C6O)C(C)(CO)C5CCC43C)C2C1` (configuration not stated): 6.97 min. For `CCC1CC2CN3CCC4(O)C(=Nc5ccc(OC)cc54)C(C(=O)OC)(C2)C13` (configuration not stated), the LC retention time is 4.01 min.

As for `CC(C)=CCc1cc(-c2coc3c(C(C=C(C)C)c4cc(-c5coc6cc(O)cc(O)c6c5=O)ccc4O)c(O)cc(O)c3c2=O)ccc1O` (configuration not stated), the LC retention time is 8.22 min.

On to `CSCC1OC(n2cnc3c(N)ncnc32)C(O)C1O` (configuration not stated), for which the LC retention time is 2.7 min. The same measure for `CCN1CC2(COC(=O)c3ccccc3N)CCC(OC)C34C5CC6C(OC)CC(O)(C5C6OC)C(O)(C(OC)C23)C14` (configuration not stated): 5.5 min; for `c1ccc2c3ccn4cc5c(cc4c-3nc2c1)CCCC5`: 5.23 min; for `O=C(CCc1ccccc1)c1c(O)cc(O)cc1OC1OC(CO)C(O)C(O)C1O` (configuration not stated): 4.85 min. The same measure for `COc1ccc2cc1Oc1ccc(cc1)CC1=NCCc3cc(OC)c(cc31)Oc1c(OC)c(OC)c(OC)c3c1C(C2)N(C)CC3` (configuration not stated): 4.25 min; for `CCCCC(=O)OC1C(CO)OC(OC2(CO)OC(CO)C(OC(C)=O)C2O)C(OC(=O)CCCC)C1OC(=O)CCCC` (configuration not stated): 8.56 min. The value for `CCCCCCCCCCCCC(O)C(O)C(COC1OC(CO)C(O)C(O)C1O)NC(C)=O` (configuration not stated) was 4.55 min; that for `COc1cc2c(c(OC)c1OC)-c1ccc(OC)c(=O)cc1C(N(C)Cc1ccccc1O)CC2` (configuration not stated) was 5.03 min. Turning to `COc1cc(-c2oc3cc(OC4OC(C)C(O)C(O)C4O)cc(O)c3c(=O)c2O)ccc1O` (configuration not stated), the LC retention time was 3.72 min. The same measure for `COCC=C1CN2C3CC45C(=Nc6c(OC)cc(OC)c(OC)c64)OCC3C1CC25` (configuration not stated): 3.82 min; for `COc1cc(O)c2c(=O)c(OC3OC(COC4OC(C)C(O)C(OC5OC(C)C(O)C(O)C5O)C4O)C(O)C(O)C3O)c(-c3ccc(O)c(O)c3)oc2c1` (configuration not stated): 4.79 min. The value for `Nc1nc2c(ncn2C2OC(CO)C(O)C2O)c(=O)[nH]1` (configuration not stated) was 1.93 min; that for `O=C(O)c1cc2c(c3c1c([N+](=O)[O-])cc1ccccc13)OCO2` was 7.55 min; that for `COc1cc(C=CC(=O)NCCCCN)ccc1O` was 2.7 min. The value for `COC(=O)CC(OC(=O)C=Cc1cc(OC)c(O)c(OC)c1)C(=O)OC` (configuration not stated) was 3.28 min. Consider `CCN1CC2(COC)CCC(O)C34C5CC6C(OC)CC(O)(C(CC23)C14)C5C6O` (configuration not stated), for which the LC retention time was 2.91 min.

On to `COC(=O)C=Cc1ccccc1`, for which the LC retention time is 2.87 min.

For the compound `O=C(O)C(Cc1ccc(O)cc1)NCC1(O)OC(CO)C(O)C1O` (configuration not stated), the LC retention time was 1.82 min. On to `Nc1ncnc2c1ncn2C1OC(CO)C(O)C1O` (configuration not stated), for which the LC retention time was 1.88 min.

As to `CCC1CN2CCc3cc(OC)c(OC)cc3C2CC1CC1NCCc2cc(O)c(OC)cc21` (configuration not stated), the LC retention time was 2.98 min. The value for `O=C(O)CC(=O)OCC1OC(Oc2c(-c3ccc(O)cc3)oc3cc(OC4OC(CO)C(O)C(O)C4O)cc(O)c3c2=O)C(O)C(O)C1O` (configuration not stated) was 3.36 min; that for `CC=C1CN2CCC34C(=C(C=O)C1CC23)Nc1c(O)cccc14` (configuration not stated) was 3.38 min; that for `O=c1cc(-c2ccccc2)oc2cc(O)c(O)c(O)c12` was 6.4 min. The value for `CC(=O)OC1CC(C)CNC12OC1CC3C4CCC5CC(OC6OC(CO)C(OC7OC(CO)C(O)C(OC8OCC(O)C(O)C8O)C7OC7OC(CO)C(O)C(O)C7O)C(O)C6O)CCC5(C)C4CCC3(C)C1C2C` (configuration not stated) was 4.78 min; that for `O=C1c2ccc(O)cc2OCC1c1ccc(O)c(OC2OC(CO)C(O)C(O)C2O)c1` (configuration not stated) was 3.56 min. The value for `O=c1cc(-c2ccc(O)cc2)oc2cc(OC3OC(CO)C(O)C(O)C3OC3OCC(O)(CO)C3O)cc(O)c12` (configuration not stated) was 4.71 min.

In the case of `COc1ccc2c(c[n+](C)c3c4cc5c(cc4ccc23)OCO5)c1OC`, the LC retention time was 5.3 min. The value for `CC1=C(CCC(C)COC2OC(CO)C(O)C(O)C2O)OC2CC3C4CC=C5CC(O)CC(OC6OCC(O)C(O)C6OC6OC(C)C(O)C(O)C6O)C5(C)C4CCC3(C)C12` (configuration not stated) was 5.59 min. Regarding `CC1OC(OC2CCC3(C)C(CCC4(C)C3C=CC35OCC6(CCC(C)(C)CC63)C(O)CC45C)C2(C)CO)C(O)C(OC2OC(CO)C(O)C(O)C2O)C1O` (configuration not stated), the LC retention time is 8.25 min. The value for `COC(=O)C1=COC(C)C2CN3CCc4c([nH]c5ccccc45)C3CC12` (configuration not stated) was 4.87 min; that for `Oc1cc(O)c2c(c1)OC(c1ccc(O)c(O)c1)C(O)C2c1c(O)cc(O)c2c1OC(c1ccc(O)c(O)c1)C(O)C2c1c(O)cc(O)c2c1OC(c1ccc(O)c(O)c1)C(O)C2` (configuration not stated) was 3.46 min; that for `CC(NC(=O)Cc1c[nH]c2ccccc12)C(=O)O` (configuration not stated) was 4.55 min. The value for `CCCCCCCCC1OC1CCCCCCCC(=O)O` (configuration not stated) was 10.3 min. Turning to `CC1=C(CCC(C)COC2OC(CO)C(O)C(O)C2OC2OC(C)C(O)C(O)C2O)OC2CC3C4CC=C5CC(O)CC(OC6OC(CO)C(O)C(O)C6O)C5(C)C4CCC3(C)C12` (configuration not stated), the LC retention time was 5.2 min.

On to `CC1(C(=O)O)CCC2(C)CCC3(C)C(=CCC4C5(C)CCC(OC6OC(C(=O)O)C(O)C(O)C6OC6OC(C(=O)O)C(O)C(O)C6O)C(C)(CO)C5CCC43C)C2C1` (configuration not stated), for which the LC retention time was 6.15 min. The same measure for `O=c1c(OC2OC(CO)C(O)C(O)C2O)c(-c2ccc(OC3OC(CO)C(O)C(O)C3O)c(O)c2)oc2cc(O)cc(O)c12` (configuration not stated): 3.54 min. For the compound `O=C(O)C1CCCN1C(=O)C1CCCN1` (configuration not stated), the LC retention time is 1.82 min. The same measure for `CC1OC(Oc2c(-c3ccc(O)c(O)c3)oc3cc(O)cc(O)c3c2=O)C(OC2OC(CO)C(O)C(O)C2O)C(O)C1O` (configuration not stated): 4.15 min; for `CC1C2CCC3C4CC=C5CC(N(C)C)CCC5(C)C4CCC32CN1C` (configuration not stated): 3.35 min; for `CCC1=NC2CC3(C(=O)N(OC)c4ccccc43)C3CC1C2CO3` (configuration not stated): 3.99 min. The same measure for `CC1=C(C)C(=O)OC(C(C)C2(O)CCC3C4C5OC5C5(O)CC=CC(=O)C5(C)C4CCC32C)C1` (configuration not stated): 6.82 min; for `NC(CCC(=O)NC(Cc1ccccc1)C(=O)O)C(=O)O` (configuration not stated): 3.04 min; for `CC1OC(Oc2cc(O)c3c(=O)c(OC4OC(CO)C(O)C(O)C4O)c(-c4ccc(O)cc4)oc3c2)C(O)C(O)C1O` (configuration not stated): 3.7 min. The same measure for `COc1cc(-c2cc(=O)c3c(O)cc(OC4OC(C(=O)O)C(O)C(O)C4O)cc3o2)cc(OC)c1O` (configuration not stated): 4.54 min; for `CS(=O)CCCCCCCCC(N)C(=O)O` (configuration not stated): 2.74 min. As for `O=C(C=Cc1ccc(O)c(O)c1)c1ccc(OC2OC(CO)C(O)C(O)C2O)c(O)c1O` (configuration not stated), the LC retention time is 4.1 min. The same measure for `CC(CS)C(=O)N1CCCC1C(=O)O` (configuration not stated): 4.05 min; for `CC(CSCC(NC(=O)CCC(NCC1(O)OCC(O)C(O)C1O)C(=O)O)C(=O)NCC(=O)O)C(=O)O` (configuration not stated): 2.4 min; for `COc1c(OC2OC(CO)C(O)C(O)C2O)cc2oc(-c3ccc(O)c(O)c3)c(O)c(=O)c2c1O` (configuration not stated): 4.58 min. The same measure for `COc1cc(CC2COC(c3ccc(O)c(OC)c3)C2CO)ccc1O` (configuration not stated): 4.96 min.

For `CCC1CN2CCC3(C(=O)Nc4ccccc43)C2CC1C(=COC)C(=O)OC` (configuration not stated), the LC retention time is 4.9 min. The value for `CC(C)=CCc1c(O)ccc(C(=O)C=Cc2ccc(O)cc2)c1O` was 8.93 min; that for `COc1ccc(C(=O)OC2CC3CCC(C2)N3C)cc1OC` (configuration not stated) was 3.95 min. The value for `CC=C1CN2C3CC1C(CO)C2Cc1c3[nH]c2ccccc12` (configuration not stated) was 3.58 min; that for `CCCCCC=CCC=CCC=CCCCCC(=O)OC(CO)COP(=O)(O)OCCN` (configuration not stated) was 8.73 min; that for `CNC(=O)Oc1ccc2c(c1)C1(C)CCN(C)C1N2C` (configuration not stated) was 3.31 min. The value for `COc1cc(-c2oc3cc(O)cc(O)c3c(=O)c2O)cc(O)c1O` was 5.37 min; that for `CC1OC(OC2C(c3c(O)cc4oc(-c5ccc(O)c(O)c5)cc(=O)c4c3O)OC(CO)C(O)C2O)C(O)C(O)C1O` (configuration not stated) was 4.48 min. `COc1cc(-c2cc(=O)c3c(O)cc(OC4OC(CO)C(O)C(O)C4O)cc3o2)cc(OC)c1O` (configuration not stated): the LC retention time was 4.57 min.

Turning to `CC1(C)CCC2(C(=O)O)C(O)CC3(C)C(=CCC4C5(C)CCC(OC6OC(CO)C(O)C(O)C6O)C(C)(C)C5CCC43C)C2C1` (configuration not stated), the LC retention time was 7.33 min. As for `CCC(C)C(N)C(=O)NC(CC(=O)O)C(=O)O` (configuration not stated), the LC retention time is 1.87 min. Take `CC(C)=CCc1cc(CCc2cc(O)c(CC=C(C)C)c(O)c2)ccc1O`: the LC retention time was 9.01 min.
